From ChEMBL document CHEMBL1147342, “Isolation and structure of the marine sponge cell growth inhibitory cyclic peptide phakellistatin 1” (1993)
≈ marks a conversion by molar mass, not a printed value. Peptide text beside a SMILES is read from it.

Test system: P388
Experiment: Cytotoxicity against mouse P388 cells
Type: functional
Settings: read-out: ED50 (the source's name)

For `CC[C@H](C)[C@@H]1NC(=O)[C@@H]2CCCN2C(=O)[C@H]([C@@H](C)CC)NC(=O)[C@@H]2CCCN2C(=O)[C@H](Cc2ccc(O)cc2)NC(=O)[C@@H]2CCCN2C(=O)[C@H](Cc2ccccc2)NC1=O` [PHAKELLISTATIN 1] (cyclo(FPYPIPI)), the EC50 was 7.5 µg/mL (≈ 9.06 µM).
